{
  "source": "paper PMC3652662",
  "about": "(Journal of molecular recognition : JMR, 2009)",
  "origin": "cited, not measured here",
  "system": "HIV-1YU2 gp120",
  "conditions": "SPR direct binding, HIV-1 Env YU2 (clade B) gp120; ref Gopi et al. (2008)",
  "data": [
    {"sequence": "RINNIPWSEAMM [Peptide 12p1]", "values": [
      {"measurement": "ka", "value": 13600, "unit": "M⁻¹ s⁻¹"}
    ]}
  ]
}
